From patent US20240150368A1, “ULK INHIBITORS AND METHODS OF USE THEREOF” (Deciphera Pharmaceuticals, LLC, priority 2022, published 2024) come the findings set out here.

For orientation: IC50 means the concentration needed to halve the response being measured.

The test system of experiment [1] is ULK kinase substrate ATG13 (pS318-ATG13) in MiaPaCa-2 cells. Description: pATG13 levels of mutant KRas MiaPaCa-2 cells after treatment with ULK inhibitors in combination with trametinib (ELISA). The format is cell-based, human. The essentials: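 MiaPaCa-2 cells grown overnight, then dosed with test compound titration plus trametinib (final 250 nM) or DMSO, overnight at 37° C. Lysate pS318-ATG13 measured by sandwich ELISA (total ATG13 capture, biotinylated pS318 detection, HRP/TMB, A450 minus A540); % phosphorylation vs control wells fitted to IC50.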

The next experiment concerns the target T1, LRRK2 kinase (Homo sapiens, UniProt Q5S007).
T1 construct: (residues 970-2528; ID NO; 3); purchased Thermo Fisher
The experiment can be described thus: Biochemical assay for LRRK2 (coupled pyruvate kinase/lactate dehydrogenase assay). The following applies: 26.4 nM LRRK2, 1 mM ATP; read-out: LRRK2 (inhibition of LRRK2 kinase activity, IC50). How it is done: Biochemical Assay for LRRK2 (SEQ. ID NO. 3)
Activity of LRRK2 kinase was determined spectroscopically using a coupled pyruvate kinase/lactate dehydrogenase assay that continuously monitors the ATP hydrolysis-dependent oxidation of NADH (e.g., Schindler et al. Science (2000) 289: 1938-1942). Assays were conducted in 384-well plates (100 μL final volume) using 26.4 nM LRRK2 (Thermo Fisher), 0.1 mM peptide substrate (RLGRDKYKTLRQIRQ), 1.5 units pyruvate kinase, 2.1 units lactate dehydrogenase, 1 mM phosphoenol pyruvate, 0.28 mM NADH and 1 mM ATP in assay buffer (100 mM Tris, pH 7.5, 15 mM MgCl2, 0.5 mM DTT, 0.004% (w/v) BSA, and 0.004% Triton X-100). Inhibition of LRRK2 was measured by adding serial diluted test compound (final assay concentration of 1% DMSO). A decrease in absorption at 340 nm was monitored continuously for 6 h at 30° C. on a multi-mode microplate reader (BioTek). The reaction rate was calculated using the 2-3 h time frame. The reaction rate at each concentration of compound was converted to percent inhibition using controls (i.e., reaction with no test compound and reaction with a known inhibitor) and IC50 values were calculated using software routines in Prism (GraphPad software).

T1 sequence (Q5S007 with tags, fused parts or gaps): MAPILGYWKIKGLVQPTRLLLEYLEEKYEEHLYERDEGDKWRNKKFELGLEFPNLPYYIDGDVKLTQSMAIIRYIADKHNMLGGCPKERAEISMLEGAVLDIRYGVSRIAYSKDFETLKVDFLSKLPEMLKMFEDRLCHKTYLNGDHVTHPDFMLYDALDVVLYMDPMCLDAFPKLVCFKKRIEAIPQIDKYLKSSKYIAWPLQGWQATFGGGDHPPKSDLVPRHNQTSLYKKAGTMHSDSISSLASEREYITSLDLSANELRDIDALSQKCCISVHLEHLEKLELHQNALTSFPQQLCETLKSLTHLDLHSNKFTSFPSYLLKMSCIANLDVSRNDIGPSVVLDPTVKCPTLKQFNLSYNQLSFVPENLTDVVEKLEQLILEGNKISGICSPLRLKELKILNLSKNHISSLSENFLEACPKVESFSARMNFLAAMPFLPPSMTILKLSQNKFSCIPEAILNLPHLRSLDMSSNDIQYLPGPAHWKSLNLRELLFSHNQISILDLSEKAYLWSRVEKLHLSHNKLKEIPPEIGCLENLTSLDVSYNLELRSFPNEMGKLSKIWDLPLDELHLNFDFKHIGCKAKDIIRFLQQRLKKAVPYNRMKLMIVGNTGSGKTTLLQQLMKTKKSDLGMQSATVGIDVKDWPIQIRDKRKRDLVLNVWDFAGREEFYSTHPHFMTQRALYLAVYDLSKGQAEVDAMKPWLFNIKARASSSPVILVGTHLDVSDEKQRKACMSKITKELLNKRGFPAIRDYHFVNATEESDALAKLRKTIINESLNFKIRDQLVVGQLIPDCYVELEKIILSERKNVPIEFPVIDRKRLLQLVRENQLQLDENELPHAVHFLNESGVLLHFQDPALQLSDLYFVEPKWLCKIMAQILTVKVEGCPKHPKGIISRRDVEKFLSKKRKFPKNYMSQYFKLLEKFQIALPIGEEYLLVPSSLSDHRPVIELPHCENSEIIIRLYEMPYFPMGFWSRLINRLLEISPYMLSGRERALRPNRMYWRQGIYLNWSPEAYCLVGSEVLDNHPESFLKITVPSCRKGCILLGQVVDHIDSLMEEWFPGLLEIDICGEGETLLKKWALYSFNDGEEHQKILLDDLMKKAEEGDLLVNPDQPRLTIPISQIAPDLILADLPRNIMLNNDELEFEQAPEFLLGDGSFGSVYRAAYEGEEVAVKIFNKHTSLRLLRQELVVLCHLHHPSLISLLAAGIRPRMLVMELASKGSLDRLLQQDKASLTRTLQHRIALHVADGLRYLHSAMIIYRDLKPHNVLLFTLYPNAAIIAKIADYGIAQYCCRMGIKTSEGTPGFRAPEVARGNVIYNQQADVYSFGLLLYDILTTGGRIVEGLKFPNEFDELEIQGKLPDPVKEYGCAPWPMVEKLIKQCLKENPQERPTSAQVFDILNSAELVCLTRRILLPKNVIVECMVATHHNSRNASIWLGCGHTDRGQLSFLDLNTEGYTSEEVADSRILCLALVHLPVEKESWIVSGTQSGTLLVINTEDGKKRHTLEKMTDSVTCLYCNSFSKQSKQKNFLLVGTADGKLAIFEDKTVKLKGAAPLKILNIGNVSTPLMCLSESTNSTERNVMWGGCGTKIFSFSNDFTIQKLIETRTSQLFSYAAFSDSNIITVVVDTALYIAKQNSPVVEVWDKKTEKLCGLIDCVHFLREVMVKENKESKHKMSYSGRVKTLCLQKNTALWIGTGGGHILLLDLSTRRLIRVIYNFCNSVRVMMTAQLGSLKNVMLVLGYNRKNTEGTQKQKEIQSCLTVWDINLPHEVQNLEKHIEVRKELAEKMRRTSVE

As for `CC/C(Nc1cnn(C(C)C)c1)=C1/C(=O)Nc2ccc(C(=O)NCC(F)(F)F)cc21` [Example 4, (Z)-3-(1-((1-isopropyl-1H-pyrazol-4-yl)amino)propylidene)-2-oxo-N-(2,2,2-trifluoroethyl)indoline-5-carboxamide], the IC50 (in experiment [1]; on LRRK2 kinase) was not above 100 nM in each case.
For `CC/C(Nc1cnn(C2CCN(C(C)C)CC2)c1)=C1/C(=O)Nc2ccc(C(=O)NCC(F)(F)F)cc21` [Example 8], the IC50 was not above 100 nM in experiment [1] and 100 to 300 nM at LRRK2 kinase.
As to `CC/C(Nc1cnn(C2CCN(C(C)C)CC2)c1)=C1/C(=O)Nc2ccc(C(=O)NCCC#N)cc21` [Example 26], the IC50 in experiment [1] was not above 100 nM; at LRRK2 kinase, 100 to 300 nM.
As to `CC/C(Nc1cnn(C2CCN(C(C)C)CC2)c1)=C1/C(=O)Nc2ccc(C(=O)NCCC(F)(F)F)cc21` [Example 31], the IC50 (in experiment [1]; at LRRK2 kinase) was not above 100 nM throughout.
`CC/C(Nc1cnn(C2CCN(C3CCOCC3)CC2)c1)=C1/C(=O)Nc2ccc(C(=O)NCC(C)C)cc21` [Example 37]: the figures for the IC50 (in experiment [1]; at LRRK2 kinase) were not above 100 nM and 100 to 300 nM, respectively.
Regarding `CC/C(Nc1ccc(N2CCN(C(C)C)CC2)cc1)=C1/C(=O)Nc2ccc(C(=O)NC[C@H]3CCCO3)cc21` [Example 47], the IC50 in experiment [1] is not above 100 nM; at LRRK2 kinase, 100 to 300 nM.
As to `CC/C(Nc1cnn(C2CCNCC2)c1)=C1/C(=O)Nc2ccc(C(=O)NC[C@H]3CCCO3)cc21` [Example 52], the IC50 in experiment [1] is not above 100 nM; on LRRK2 kinase it was 100 to 300 nM.
For the molecule `CC/C(Nc1cnn(C2CN(C)C2)c1)=C1/C(=O)Nc2ccc(C(=O)NC[C@H]3CCCO3)cc21` [Example 54], the IC50 was not above 100 nM in experiment [1] and 300 to 600 nM on LRRK2 kinase.
In the case of `CC/C(Nc1cnn(C)c1)=C1/C(=O)Nc2ccc(C(=O)NC[C@H]3CCCO3)cc21` [Example 55], the IC50 in experiment [1] is not above 100 nM; at LRRK2 kinase, 100 to 300 nM.
On to `CC/C(Nc1cnn(C2CCN(C(C)C)CC2)c1)=C1/C(=O)Nc2ccc(C(=O)NC[C@@H](C)OC)cc21` [Example 58], for which the figures for the concentration for half-maximal inhibition (IC50) (in experiment [1]; on LRRK2 kinase) were not above 100 nM and 300 to 600 nM, respectively.
As to `CC/C(Nc1ccc(N2CC3(CN(C)C3)C2)cc1)=C1/C(=O)Nc2ccc(C(=O)NCC(F)(F)F)cc21` [Example 62], the IC50 (in experiment [1]; at LRRK2 kinase) was not above 100 nM throughout.
For `CC/C(Nc1ccc(N2CCN(C(C)C)CC2)cn1)=C1/C(=O)Nc2ccc(C(=O)NC[C@H]3CCCO3)cc21` [Example 93], the IC50 (in experiment [1]; on LRRK2 kinase) was not above 100 nM throughout.
Turning to `CC/C(Nc1cnc(N2CCN(C(C)C)CC2)cn1)=C1/C(=O)Nc2ccc(C(=O)NCC(F)(F)F)cc21` [Example 94], the figures for the IC50 (in experiment [1]; at LRRK2 kinase) were not above 100 nM and 100 to 300 nM, respectively.
Turning to `CC/C(Nc1cnn(C(C)C)c1)=C1/C(=O)Nc2ccc(C(=O)NC[C@H]3CCCO3)cc21` [Example 95], the half-maximal inhibitory concentration (IC50) (in experiment [1]; at LRRK2 kinase) was not above 100 nM each time.
`CC/C(Nc1cnn(C2CCN(C(C)C)CC2)c1)=C1/C(=O)Nc2ccc(C(=O)NCCOC)cc21` [Example 98]: the IC50 in experiment [1] is not above 100 nM; on LRRK2 kinase, 100 to 300 nM.
As to `CC/C(Nc1cnn([C@H]2CCOC2)c1)=C1/C(=O)Nc2ccc(C(=O)NCC(F)(F)F)cc21` [Example 104], the IC50 (in experiment [1]; on LRRK2 kinase) was not above 100 nM in each case.
As for `CC/C(Nc1cnn(CC)c1)=C1/C(=O)Nc2ccc(C(=O)NCC(F)(F)F)cc21` [Example 107], the IC50 (in experiment [1]; at LRRK2 kinase) was not above 100 nM throughout.
For the molecule `CC/C(Nc1cn[nH]c1)=C1/C(=O)Nc2ccc(C(=O)NCC(F)(F)F)cc21` [Example 108], the IC50 (in experiment [1]; at LRRK2 kinase) was 100 to 300 nM throughout.
As for `CC/C(Nc1cnn(C(C)C)c1)=C1/C(=O)Nc2ccc(C(=O)NCC(F)F)cc21` [Example 112], the IC50 (in experiment [1]; on LRRK2 kinase) was not above 100 nM throughout.
With `CC/C(Nc1cnn(C(F)(F)F)c1)=C1/C(=O)Nc2ccc(C(=O)NCC(F)(F)F)cc21` [Example 113], the values for the IC50 (in experiment [1]; at LRRK2 kinase) were not above 100 nM and 100 to 300 nM, respectively.
As for `CC/C(Nc1cnn(C(F)F)c1)=C1/C(=O)Nc2ccc(C(=O)NCC(F)(F)F)cc21` [Example 114], the IC50 (in experiment [1]; at LRRK2 kinase) was not above 100 nM in each case.
As for `CC/C(Nc1cnn(C2CC2)c1)=C1/C(=O)Nc2ccc(C(=O)NCC(F)(F)F)cc21` [Example 116], the 50% inhibitory concentration (IC50) (in experiment [1]; at LRRK2 kinase) was not above 100 nM throughout.
As to `CC/C(Nc1cnn(C2CCC2)c1)=C1/C(=O)Nc2ccc(C(=O)NCC(F)(F)F)cc21` [Example 117], the IC50 (in experiment [1]; on LRRK2 kinase) was not above 100 nM throughout.
Regarding `CC/C(Nc1cnn(C2COC2)c1)=C1/C(=O)Nc2ccc(C(=O)NCC(F)(F)F)cc21` [Example 118], the IC50 (in experiment [1]; on LRRK2 kinase) was not above 100 nM each time.
Take `CC/C(Nc1cnn(C(C)C)c1)=C1/C(=O)Nc2ccc(C(=O)N[C@H](C)C(F)(F)F)cc21` [Example 119]: the IC50 (in experiment [1]; on LRRK2 kinase) was not above 100 nM throughout.
On to `CC/C(Nc1cnn(C2CCN(C(C)C)CC2)c1)=C1/C(=O)Nc2ccc(C(C)=O)cc21` [Example 123], for which the IC50 in experiment [1] is not above 100 nM; at LRRK2 kinase it was 100 to 300 nM.
As to `CC/C(Nc1cnn(C(C)C)c1)=C1/C(=O)Nc2ccc(C(=O)N(C)CC(F)(F)F)cc21` [Example 125], the IC50 in experiment [1] is 100 to 300 nM; on LRRK2 kinase it was not above 100 nM.
For `CC/C(Nc1cnn(C(C)C)c1)=C1/C(=O)Nc2ccc(C(=O)NCC(C)C)cc21` [Example 130], the IC50 (in experiment [1]; on LRRK2 kinase) was not above 100 nM throughout.
Regarding `CC/C(Nc1cnn(C(C)C)c1)=C1/C(=O)Nc2ccc(C(=O)NCC(C)(C)F)cc21` [Example 135], the IC50 is not above 100 nM in experiment [1] and 100 to 300 nM on LRRK2 kinase.
With `CC/C(Nc1cnn(C(C)C)c1)=C1/C(=O)Nc2ccc(C(=O)NCCOC(F)(F)F)cc21` [Example 136], the IC50 was not above 100 nM in experiment [1] and 300 to 600 nM on LRRK2 kinase.
Turning to `CC/C(Nc1cnn(C(C)C)c1)=C1/C(=O)Nc2ccc(C(=O)NCC3CCC(C)(C)O3)cc21` (centres unmarked) [Example 137], the IC50 (in experiment [1]; on LRRK2 kinase) was 100 to 300 nM each time.
For `CC/C(Nc1cnn(C(C)C)c1)=C1/C(=O)Nc2ccc(C(=O)NCC3(C(F)(F)F)CC3)cc21` [Example 140], the IC50 (in experiment [1]; on LRRK2 kinase) was not above 100 nM throughout.
Take `CC/C(Nc1ccc2nn(C(C)C)cc2c1)=C1/C(=O)Nc2ccc(C(=O)NCC(F)(F)F)cc21` [Example 142]: the IC50 in experiment [1] was 100 to 300 nM; at LRRK2 kinase, not above 100 nM.
`CC/C(Nc1cnn(C(C)C)c1)=C1/C(=O)Nc2ccc(C(=O)NCC3(F)CC3)cc21` [Example 152]: the IC50 (in experiment [1]; at LRRK2 kinase) was not above 100 nM throughout.
For the molecule `CC/C(Nc1cnn(C)c1)=C1/C(=O)Nc2ccc(C(=O)NCC3(F)CC3)cc21` [Example 154], the IC50 (in experiment [1]; on LRRK2 kinase) was not above 100 nM throughout.
As to `CC/C(Nc1cnn(CC(F)F)c1)=C1/C(=O)Nc2ccc(C(=O)NCC(C)(C)F)cc21` [Example 161], the values for the IC50 (in experiment [1]; on LRRK2 kinase) were not above 100 nM and 100 to 300 nM, respectively.
Take `CC/C(Nc1cnn(C2CCOCC2)c1)=C1/C(=O)Nc2ccc(C(=O)NCC(C)(C)F)cc21` [Example 173]: the IC50 (in experiment [1]; on LRRK2 kinase) was not above 100 nM each time.
